# Data as given in PubChem BioAssay (NCI).
#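 Briefly, cells in 96-well plates were exposed to five compound concentrations for 48 h, and endpoints were estimated by linear interpolation. GI50 marks 50% less growth. TGI marks complete inhibition of growth.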
# Columns and labels:
# Test in all cases: inhibition of tumour cell growth, NCI panel, 48 h
# [1] = test system: HT29 colon
# [2] = test system: ACHN renal
# [3] = test system: LOX IMVI melanoma
# [4] = test system: SF-295 CNS
# [5] = test system: SF-539 CNS
# [6] = test system: HCT-116 colon
# [7] = test system: HOP-62 NSCLC
# [8] = test system: TK-10 renal
# [9] = test system: SK-MEL-2 melanoma
# [10] = test system: UACC-62 melanoma
# [11] = test system: SNB-75 CNS
# [12] = test system: DU-145 prostate
# [13] = test system: UACC-257 melanoma
# [14] = test system: NCI/ADR-RES ovarian
# [15] = test system: MDA-MB-231 breast
# [16] = test system: SR leukemia
# [17] = test system: SNB-19 CNS
# [18] = test system: HL-60(TB) leukemia
# [19] = test system: A549 NSCLC
# [20] = test system: NCI-H226 lung
# [21] = test system: IGROV1 ovarian
# [22] = test system: MCF7 breast
# [23] = test system: HCC-2998 colon
# [24] = test system: COLO 205 colon
# [25] = test system: MOLT-4 leukemia
# [26] = test system: K-562 leukemia
# [27] = test system: RXF 393 renal
# [28] = test system: CCRF-CEM leukemia
# [29] = test system: HS 578T breast
# [30] = test system: T-47D breast
# [31] = test system: OVCAR-5 ovarian
# [32] = test system: SK-MEL-28 melanoma
# [33] = test system: SF-268 CNS
# [34] = test system: NCI-H23 lung
# [35] = test system: EKVX NSCLC
# [36] = test system: OVCAR-4 ovarian
# [37] = test system: BT-549 breast
# [38] = test system: OVCAR-8 ovarian
# [39] = test system: SK-MEL-5 melanoma
# [40] = test system: KM12 colon
# [41] = test system: UO-31 renal
# [42] = test system: NCI-H522 lung
# [43] = test system: U251 CNS
# [44] = test system: A498 renal
# [45] = test system: SW-620 colon
# [46] = test system: SK-OV-3 ovarian
# [47] = test system: M14 melanoma
# [48] = test system: HCT-15 colon
# [49] = test system: RPMI-8226 leukemia
# [50] = test system: CAKI-1 renal
# [51] = test system: MDA-MB-435
# [52] = test system: SN12C renal
# [53] = test system: PC-3 prostate
# [54] = test system: OVCAR-3 ovarian
# [55] = test system: 786-0 renal
# [56] = test system: NCI-H460 lung
smiles,measurement,setting,value
CCS(=O)(=O)c1ccc(OC)c(Nc2ncc(-c3cccc(C(C)=O)c3)o2)c1,GI50,[1],> 25 µM
same,TGI,[1],> 25 µM
same,GI50,[2],11.4 µM
same,TGI,[2],> 25 µM
same,GI50,[3],10.4 µM
same,TGI,[3],> 25 µM
same,GI50,[4],23.1 µM
same,TGI,[4],> 25 µM
same,GI50,[5],8.69 µM
same,TGI,[5],> 25 µM
same,GI50,[6],11.4 µM
same,TGI,[6],> 25 µM
same,GI50,[7],> 25 µM
same,TGI,[7],> 25 µM
same,GI50,[8],> 25 µM
same,TGI,[8],> 25 µM
same,GI50,[9],> 25 µM
same,TGI,[9],> 25 µM
same,GI50,[10],> 25 µM
same,TGI,[10],> 25 µM
same,GI50,[11],2.73 µM
same,TGI,[11],23 µM
same,GI50,[12],> 25 µM
same,TGI,[12],> 25 µM
same,GI50,[13],> 25 µM
same,TGI,[13],> 25 µM
same,GI50,[14],> 25 µM
same,TGI,[14],> 25 µM
same,GI50,[15],7.73 µM
same,TGI,[15],> 25 µM
same,GI50,[16],15.6 µM
same,TGI,[16],> 25 µM
same,GI50,[17],19.9 µM
same,TGI,[17],> 25 µM
same,GI50,[18],> 25 µM
same,TGI,[18],> 25 µM
same,GI50,[19],> 25 µM
same,TGI,[19],> 25 µM
same,GI50,[20],2.69 µM
same,TGI,[20],> 25 µM
same,GI50,[21],5.47 µM
same,TGI,[21],16.1 µM
same,GI50,[22],> 25 µM
same,TGI,[22],> 25 µM
same,GI50,[23],> 25 µM
same,TGI,[23],> 25 µM
same,GI50,[24],> 25 µM
same,TGI,[24],> 25 µM
same,GI50,[25],> 25 µM
same,TGI,[25],> 25 µM
same,GI50,[26],7.56 µM
same,TGI,[26],> 25 µM
same,GI50,[27],3.21 µM
same,TGI,[27],16.6 µM
same,GI50,[28],> 25 µM
same,TGI,[28],> 25 µM
same,GI50,[29],5.88 µM
same,TGI,[29],> 25 µM
same,GI50,[30],16.7 µM
same,TGI,[30],> 25 µM
same,GI50,[31],> 25 µM
same,TGI,[31],> 25 µM
same,GI50,[32],> 25 µM
same,TGI,[32],> 25 µM
same,GI50,[33],17.9 µM
same,TGI,[33],> 25 µM
same,GI50,[34],> 25 µM
same,TGI,[34],> 25 µM
same,GI50,[35],> 25 µM
same,TGI,[35],> 25 µM
same,GI50,[36],> 25 µM
same,TGI,[36],> 25 µM
same,GI50,[37],20.4 µM
same,TGI,[37],> 25 µM
same,GI50,[38],> 25 µM
same,TGI,[38],> 25 µM
same,GI50,[39],> 25 µM
same,TGI,[39],> 25 µM
same,GI50,[40],2.1 µM
same,TGI,[40],> 25 µM
same,GI50,[41],5.86 µM
same,TGI,[41],> 25 µM
same,GI50,[42],11 µM
same,TGI,[42],> 25 µM
same,GI50,[43],19.7 µM
same,TGI,[43],> 25 µM
same,GI50,[44],0.6 µM
same,TGI,[44],5.88 µM
same,GI50,[45],> 25 µM
same,TGI,[45],> 25 µM
same,GI50,[46],21.5 µM
same,TGI,[46],> 25 µM
same,GI50,[47],> 25 µM
same,TGI,[47],> 25 µM
same,GI50,[48],> 25 µM
same,TGI,[48],> 25 µM
same,GI50,[49],> 25 µM
same,TGI,[49],> 25 µM
same,GI50,[50],8.71 µM
same,TGI,[50],> 25 µM
same,GI50,[51],> 25 µM
same,TGI,[51],> 25 µM
same,GI50,[52],14 µM
same,TGI,[52],> 25 µM
same,GI50,[53],> 25 µM
same,TGI,[53],> 25 µM
same,GI50,[54],> 25 µM
same,TGI,[54],> 25 µM
same,GI50,[55],> 25 µM
same,TGI,[55],> 25 µM
same,GI50,[56],> 25 µM
same,TGI,[56],> 25 µM
